How the values were obtained:
Type in all cases: biochemical
[1] = biological target: DGKalpha (hDGKalpha(1-735)-N-His) (Homo sapiens (Human), UniProt P23743); test: In vitro DGK inhibition assay, ADP-Glo (in house), DGKalpha; conditions: DLG liposomes, 25 μM ATP, 4 nM enzyme, 1 hour reaction
DGK α kinase = DGK α kinase (Homo sapiens (Human), UniProt P23743); test: In vitro DGK inhibition assay: ADP Glo run by Reaction Biology Corp., DGKalpha; conditions: 2 nM enzyme, 500 uM DLG, 10-dose duplicate
Description: (§1) DGK α and ζ kinases use ATP to phosphorylate the substrate 1,2-dilauroyl-sn-glycerol (DLG). ATP is converted to ADP as a result of this enzymatic reaction.
(§2) After the kinase reaction, an ATP-depletion reagent is added to terminate the kinase reaction and deplete any remaining ATP, leaving only ADP. Second, a detection reagent is added to simultaneously convert ADP to ATP and allow the newly synthesized ATP to be converted to light using a coupled luciferase/luciferin reaction.
(§3) DGK α and ζ kinase ADP Glo assays were ran by Reaction Biology Corp., 1 Great Valley Parkway, Suite 2, Malvern, 19355, PA, USA. Information provided by the service provider are the following: DGK α and ζ kinases were used at 2 nM final concentration. Reactions were carried out at 50 µM ATP. 500 uM of the substrate DLG (Dilauroyl-sn-glycerol) was used.

DGK ζ kinase = DGK ζ kinase (Homo sapiens (Human), UniProt Q13574); test: In vitro DGK inhibition assay: ADP Glo run by Reaction Biology Corp., DGKzeta; conditions: 2 nM enzyme, 500 uM DLG, 10-dose duplicate
Description: as §1, §2, §3

Sequence of DGKalpha (hDGKalpha(1-735)-N-His) (P23743 whole entry): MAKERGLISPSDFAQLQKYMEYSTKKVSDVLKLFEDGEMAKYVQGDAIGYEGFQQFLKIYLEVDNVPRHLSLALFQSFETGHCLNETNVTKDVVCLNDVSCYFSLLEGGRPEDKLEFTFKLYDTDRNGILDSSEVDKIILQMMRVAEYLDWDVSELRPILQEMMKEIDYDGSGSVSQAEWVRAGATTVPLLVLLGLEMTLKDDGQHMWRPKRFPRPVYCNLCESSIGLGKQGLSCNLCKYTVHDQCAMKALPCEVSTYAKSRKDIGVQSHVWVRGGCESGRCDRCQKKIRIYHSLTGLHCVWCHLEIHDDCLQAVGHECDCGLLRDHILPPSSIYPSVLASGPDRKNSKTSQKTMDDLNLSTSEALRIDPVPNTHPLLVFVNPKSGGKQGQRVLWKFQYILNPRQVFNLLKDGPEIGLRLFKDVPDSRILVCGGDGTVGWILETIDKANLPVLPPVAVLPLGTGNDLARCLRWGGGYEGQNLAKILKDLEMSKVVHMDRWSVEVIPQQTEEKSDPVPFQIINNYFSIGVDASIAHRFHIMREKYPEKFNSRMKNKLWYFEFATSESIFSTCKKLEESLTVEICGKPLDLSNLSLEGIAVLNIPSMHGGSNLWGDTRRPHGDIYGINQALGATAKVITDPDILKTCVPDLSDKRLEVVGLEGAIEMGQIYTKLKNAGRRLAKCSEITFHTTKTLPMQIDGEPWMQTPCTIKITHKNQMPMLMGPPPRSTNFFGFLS
Sequence of DGK ζ kinase (Q13574 whole entry): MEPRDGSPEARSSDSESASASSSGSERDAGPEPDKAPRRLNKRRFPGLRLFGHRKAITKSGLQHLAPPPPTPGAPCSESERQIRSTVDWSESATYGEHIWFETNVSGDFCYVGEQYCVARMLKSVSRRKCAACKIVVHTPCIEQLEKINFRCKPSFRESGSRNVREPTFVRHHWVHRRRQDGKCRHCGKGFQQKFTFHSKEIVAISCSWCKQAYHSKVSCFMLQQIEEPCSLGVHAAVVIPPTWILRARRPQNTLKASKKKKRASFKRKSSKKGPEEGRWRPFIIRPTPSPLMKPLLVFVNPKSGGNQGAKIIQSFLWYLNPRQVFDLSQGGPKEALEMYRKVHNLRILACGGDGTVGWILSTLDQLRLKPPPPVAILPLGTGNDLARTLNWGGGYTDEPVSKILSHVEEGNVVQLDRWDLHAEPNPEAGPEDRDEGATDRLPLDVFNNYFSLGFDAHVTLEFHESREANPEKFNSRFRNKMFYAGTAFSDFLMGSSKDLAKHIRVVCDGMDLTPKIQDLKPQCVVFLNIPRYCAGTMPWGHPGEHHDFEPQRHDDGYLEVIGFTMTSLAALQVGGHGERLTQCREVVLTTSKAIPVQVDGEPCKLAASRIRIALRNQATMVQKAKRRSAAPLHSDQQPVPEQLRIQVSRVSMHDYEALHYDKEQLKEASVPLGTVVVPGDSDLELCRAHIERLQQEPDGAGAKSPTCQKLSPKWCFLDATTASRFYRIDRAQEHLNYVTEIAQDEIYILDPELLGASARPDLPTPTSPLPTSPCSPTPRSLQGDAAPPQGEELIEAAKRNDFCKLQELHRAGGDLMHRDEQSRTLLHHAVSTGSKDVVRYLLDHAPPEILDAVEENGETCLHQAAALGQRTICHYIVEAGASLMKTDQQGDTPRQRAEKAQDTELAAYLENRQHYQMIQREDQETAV
Sequence of DGK α kinase (P23743 whole entry): as the sequence (P23743 whole entry) above

Molecule `COc1ccc(-c2ccc(CN3C(=O)[C@@H](N)CS(=O)(=O)c4cc(F)c(-c5cnc(C)c(C)c5)cc43)cc2)cc1` [Example 28, (3R)-3-amino-7-(5,6-dimethyl-3-pyridyl)-8-fluoro-5-[[4-(4-methoxyphenyl)phenyl]methyl]-1,1-dioxo-2,3-dihydro-1λ6,5-benzothiazepin-4-one] has an IC50 [1] of 3.06 µM.
Work on `CC(C)(c1cncc(-c2cc3c(cc2F)S(=O)(=O)C[C@H](N)C(=O)N3Cc2ccc(-c3noc(C(F)(F)F)n3)cc2)c1)S(C)(=O)=O` [Example 25, (3R)-3-amino-8-fluoro-1,1-diketo-7-[5-(1-mesyl-1-methyl-ethyl)-3-pyridyl]-5-[4-[5-(trifluoromethyl)-1,2,4-oxadiazol-3-yl]benzyl]-2,3-dihydro-1λ6,5-benzothiazepin-4-one] yielded an IC50 [1] of 22.2 µM.
`CC(C)(C#N)c1cncc(-c2cc3c(cc2F)S(=O)(=O)C[C@H](N)C(=O)N3Cc2ccc(-c3noc(C(F)(F)F)n3)cc2)c1` [Example 23, 2-[5-[(3R)-3-amino-8-fluoro-1,1,4-triketo-5-[4-[5-(trifluoromethyl)-1,2,4-oxadiazol-3-yl]benzyl]-2,3-dihydro-1λ6,5-benzothiazepin-7-yl]-3-pyridyl]-2-methyl-propionitrile] showed an IC50 [1] of 17.2 µM, an IC50 (DGK α kinase) of 0.372 µM and an IC50 (DGK ζ kinase) of 0.309 µM.
